System: 186277-243-T-J2-PDC complex spheroid viability
Assay: Anticancer human tumor 186277-243-T-J2-PDC patient-derived colon adenocarcinoma cell line growth inhibition [POLQ]
Details: for IC50: curve of first compound; for viability, T/C: stronger effect = lower value
Procedure, shortened: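 Growth inhibition in 3D: complex spheroids (tumor PDC, HUVEC, MSC) treated with POLQ inhibitor combinations; where Cmax unknown, highest tested concentration 10 microM, except SN-38 at 1 microM.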

[1] = second compound 0.0316 µM, first compound 0.0316 µM
[2] = second compound 0.0316 µM, first compound 0.1 µM
[3] = second compound 0.0316 µM, first compound 0.316 µM
[4] = second compound 0.0316 µM, first compound 1 µM
[5] = second compound 0.0316 µM, first compound 3.16 µM
[6] = second compound 0.0316 µM, first compound 10 µM
[7] = second compound 0.1 µM, first compound 0.0316 µM
[8] = second compound 0.1 µM, first compound 0.1 µM
[9] = second compound 0.1 µM, first compound 0.316 µM
[10] = second compound 0.1 µM, first compound 1 µM
[11] = second compound 0.1 µM, first compound 3.16 µM
[12] = second compound 0.1 µM, first compound 10 µM
[13] = second compound 0.316 µM, first compound 0.0316 µM
[14] = second compound 0.316 µM, first compound 0.1 µM
[15] = second compound 0.316 µM, first compound 0.316 µM
[16] = second compound 0.316 µM, first compound 1 µM
[17] = second compound 0.316 µM, first compound 3.16 µM
[18] = second compound 0.316 µM, first compound 10 µM
[19] = second compound 1 µM, first compound 0.0316 µM
[20] = second compound 1 µM, first compound 0.1 µM
[21] = second compound 1 µM, first compound 0.316 µM
[22] = second compound 1 µM, first compound 1 µM
[23] = second compound 1 µM, first compound 3.16 µM
[24] = second compound 1 µM, first compound 10 µM
[25] = second compound 3.16 µM, first compound 0.0316 µM
[26] = second compound 3.16 µM, first compound 0.1 µM
[27] = second compound 3.16 µM, first compound 0.316 µM
[28] = second compound 3.16 µM, first compound 1 µM
[29] = second compound 3.16 µM, first compound 3.16 µM
[30] = second compound 3.16 µM, first compound 10 µM
[31] = second compound 10 µM, first compound 0.0316 µM
[32] = second compound 10 µM, first compound 0.1 µM
[33] = second compound 10 µM, first compound 0.316 µM
[34] = second compound 10 µM, first compound 1 µM
[35] = second compound 10 µM, first compound 3.16 µM
[36] = second compound 10 µM, first compound 10 µM
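Further: spheroids exposed to compounds for seven days.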
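Wherever viability, T/C is given: 100% = DMSO vehicle control viability.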

`CC1COCCN1c1cc(C2(O)CC3CCC(C2)O3)c2cnn(-c3ccn[nH]3)c2n1` (stereo not drawn) + Nc1ccc(C#CCN(C(=O)Cc2ncc(C(F)(F)F)cc2C(F)(F)F)c2ccc(F)cc2)nn1 showed an IC50 (second compound 0.0316 µM) of 67.1 nM, an IC50 (second compound 0.1 µM) of 69 nM and an IC50 (second compound 0.316 µM) of 71.3 nM. The IC50 (second compound 1 µM) was 66.4 nM, the IC50 (second compound 3.16 µM) was 64.4 nM and the IC50 (second compound 10 µM) was 55.2 nM. For the same molecule, the viability, T/C [1] was 107%, the viability, T/C [2] was 19.5% and the viability, T/C [3] was 9.32%. The viability, T/C [4] was 6.59%, the viability, T/C [5] was 9.6% and the viability, T/C [6] was 7.56%. For the same molecule, the viability, T/C [7] was 113%, the viability, T/C [8] was 20.2% and the viability, T/C [9] was 8.44%. For the same molecule, the viability, T/C [10] was 6.39%, the viability, T/C [11] was 8.6% and the viability, T/C [12] was 8.62%. For the same molecule, the viability, T/C [13] was 116%, the viability, T/C [14] was 22.6% and the viability, T/C [15] was 8.74%. For the same molecule, the viability, T/C [16] was 6.2%, the viability, T/C [17] was 8.36% and the viability, T/C [18] was 8.22%. It also gave a viability, T/C [19] of 109%, a viability, T/C [20] of 17.5% and a viability, T/C [21] of 8.98%. The viability, T/C [22] was 6.1%, the viability, T/C [23] was 8.12% and the viability, T/C [24] was 7.01%. The viability, T/C [25] was 102%, the viability, T/C [26] was 17.9% and the viability, T/C [27] was 8.53%. The viability, T/C [28] was 7.23%, the viability, T/C [29] was 8.02% and the viability, T/C [30] was 9.12%. For the same molecule, the viability, T/C [31] was 85.1%, the viability, T/C [32] was 12.7% and the viability, T/C [33] was 8.17%. It also gave a viability, T/C [34] of 5.8%, a viability, T/C [35] of 8.58% and a viability, T/C [36] of 6.5%.
In the case of `Nc1ccn(C2OC(CO)C(O)C2(F)F)c(=O)n1` (stereo not drawn) + Nc1ccc(C#CCN(C(=O)Cc2ncc(C(F)(F)F)cc2C(F)(F)F)c2ccc(F)cc2)nn1, the IC50 (second compound 0.0316 µM) is reported as < 31.6 nM, the IC50 (second compound 0.1 µM) is reported as < 31.6 nM and the IC50 (second compound 0.316 µM) is reported as < 31.6 nM. For the same molecule, the IC50 (second compound 1 µM) was < 31.6 nM, the IC50 (second compound 3.16 µM) was < 31.6 nM and the IC50 (second compound 10 µM) was < 31.6 nM. The viability, T/C [1] was 14.7%, the viability, T/C [2] was 11.5% and the viability, T/C [3] was 11.6%. The viability, T/C [4] was 14%, the viability, T/C [5] was 14% and the viability, T/C [6] was 13.6%. The viability, T/C [7] was 13.9%, the viability, T/C [8] was 12.2% and the viability, T/C [9] was 12.4%. For the same molecule, the viability, T/C [10] was 13.2%, the viability, T/C [11] was 15% and the viability, T/C [12] was 13.8%. The viability, T/C [13] was 14.4%, the viability, T/C [14] was 12.9% and the viability, T/C [15] was 12.7%. The viability, T/C [16] was 13.4%, the viability, T/C [17] was 14.1% and the viability, T/C [18] was 15.2%. It also gave a viability, T/C [19] of 12.8%, a viability, T/C [20] of 12% and a viability, T/C [21] of 11.7%. The viability, T/C [22] was 13%, the viability, T/C [23] was 14.8% and the viability, T/C [24] was 14.3%. It also gave a viability, T/C [25] of 13%, a viability, T/C [26] of 13.9% and a viability, T/C [27] of 10.6%. For the same molecule, the viability, T/C [28] was 11.9%, the viability, T/C [29] was 15.2% and the viability, T/C [30] was 15.3%. It also gave a viability, T/C [31] of 12.5%, a viability, T/C [32] of 11.3% and a viability, T/C [33] of 11.5%. It also gave a viability, T/C [34] of 11.5%, a viability, T/C [35] of 12.9% and a viability, T/C [36] of 13.9%.
`COc1ccc([C@@H](O)c2cc(-c3ncnc4cc(N5CCOCC5)ccc34)c(F)cc2Cl)nn1` + Nc1ccc(C#CCN(C(=O)Cc2ncc(C(F)(F)F)cc2C(F)(F)F)c2ccc(F)cc2)nn1 was tested, and the IC50 (second compound 0.0316 µM) was > 10000 nM, the IC50 (second compound 0.1 µM) was > 10000 nM and the IC50 (second compound 0.316 µM) was > 10000 nM. The IC50 (second compound 1 µM) was > 10000 nM, the IC50 (second compound 3.16 µM) was > 10000 nM and the IC50 (second compound 10 µM) was > 10000 nM. It also gave a viability, T/C [1] of 104%, a viability, T/C [2] of 109% and a viability, T/C [3] of 110%. The viability, T/C [4] was 103%, the viability, T/C [5] was 90.2% and the viability, T/C [6] was 58.5%. For the same molecule, the viability, T/C [7] was 97.6%, the viability, T/C [8] was 106% and the viability, T/C [9] was 99.5%. It also gave a viability, T/C [10] of 96.3%, a viability, T/C [11] of 101% and a viability, T/C [12] of 67.7%. For the same molecule, the viability, T/C [13] was 99.3%, the viability, T/C [14] was 95.6% and the viability, T/C [15] was 107%. It also gave a viability, T/C [16] of 108%, a viability, T/C [17] of 101% and a viability, T/C [18] of 60%. The viability, T/C [19] was 114%, the viability, T/C [20] was 101% and the viability, T/C [21] was 104%. For the same molecule, the viability, T/C [22] was 95.4%, the viability, T/C [23] was 98.3% and the viability, T/C [24] was 63.8%. For the same molecule, the viability, T/C [25] was 111%, the viability, T/C [26] was 105% and the viability, T/C [27] was 97.6%. It also gave a viability, T/C [28] of 116%, a viability, T/C [29] of 99.7% and a viability, T/C [30] of 63.2%. It also gave a viability, T/C [31] of 104%, a viability, T/C [32] of 90.6% and a viability, T/C [33] of 102%. The viability, T/C [34] was 114%, the viability, T/C [35] was 111% and the viability, T/C [36] was 57%.
For `Cn1ncnc1[C@H]1c2n[nH]c(=O)c3cc(F)cc(c23)N[C@@H]1c1ccc(F)cc1` + COC1C(OC(N)=O)C(O)C(Oc2ccc3c(O)c(NC(=O)c4ccc(O)c(CC=C(C)C)c4)c(=O)oc3c2C)OC1(C)C, the IC50 (second compound 0.0316 µM) was > 100 nM, the IC50 (second compound 0.1 µM) was > 100 nM and the IC50 (second compound 0.316 µM) was > 100 nM. For the same molecule, the IC50 (second compound 1 µM) was > 100 nM, the IC50 (second compound 3.16 µM) was > 100 nM and the IC50 (second compound 10 µM) was > 100 nM. It also gave a viability, T/C (second compound 0.0316 µM, first compound 0.000316 µM) of 96.7%, a viability, T/C (second compound 0.0316 µM, first compound 0.001 µM) of 93% and a viability, T/C (second compound 0.0316 µM, first compound 0.00316 µM) of 114%. It also gave a viability, T/C (second compound 0.0316 µM, first compound 0.01 µM) of 112%, a viability, T/C [1] of 119% and a viability, T/C [2] of 105%. It also gave a viability, T/C (second compound 0.1 µM, first compound 0.000316 µM) of 103%, a viability, T/C (second compound 0.1 µM, first compound 0.001 µM) of 110% and a viability, T/C (second compound 0.1 µM, first compound 0.00316 µM) of 103%. For the same molecule, the viability, T/C (second compound 0.1 µM, first compound 0.01 µM) was 106%, the viability, T/C [7] was 116% and the viability, T/C [8] was 108%. It also gave a viability, T/C (second compound 0.316 µM, first compound 0.000316 µM) of 101%, a viability, T/C (second compound 0.316 µM, first compound 0.001 µM) of 111% and a viability, T/C (second compound 0.316 µM, first compound 0.00316 µM) of 111%. For the same molecule, the viability, T/C (second compound 0.316 µM, first compound 0.01 µM) was 105%, the viability, T/C [13] was 114% and the viability, T/C [14] was 108%. It also gave a viability, T/C (second compound 1 µM, first compound 0.000316 µM) of 84.4%, a viability, T/C (second compound 1 µM, first compound 0.001 µM) of 110% and a viability, T/C (second compound 1 µM, first compound 0.00316 µM) of 108%. The viability, T/C (second compound 1 µM, first compound 0.01 µM) was 98.3%, the viability, T/C [19] was 118% and the viability, T/C [20] was 102%. The viability, T/C (second compound 3.16 µM, first compound 0.000316 µM) was 92.4%, the viability, T/C (second compound 3.16 µM, first compound 0.001 µM) was 106% and the viability, T/C (second compound 3.16 µM, first compound 0.00316 µM) was 107%. It also gave a viability, T/C (second compound 3.16 µM, first compound 0.01 µM) of 117%, a viability, T/C [25] of 128% and a viability, T/C [26] of 100%. For the same molecule, the viability, T/C (second compound 10 µM, first compound 0.000316 µM) was 96.2%, the viability, T/C (second compound 10 µM, first compound 0.001 µM) was 106% and the viability, T/C (second compound 10 µM, first compound 0.00316 µM) was 110%. It also gave a viability, T/C (second compound 10 µM, first compound 0.01 µM) of 101%, a viability, T/C [31] of 109% and a viability, T/C [32] of 104%.

Source: PubChem BioAssay AID1963854 (Molecular Pharmacology Branch, DTP, NCI, 2024)
